Test results: the kinase profiling compilation of Christmann-Franck et al. (2016)

What was measured:
Test in all cases: radiometric filter-binding kinase assay, Kinase HotSpot
Settings in all cases: compound 0.5 µM; ATP 10 µM
[1] = molecular target: CDK9 CCNK (human) (UniProt O75909+P50750)
[2] = molecular target: INSRR (human) (UniProt P14616)
[3] = molecular target: MAPK11 (human) (UniProt Q15759)
[4] = molecular target: LTK (human) (UniProt P29376)
[5] = molecular target: BTK (human) (UniProt Q06187)
[6] = molecular target: CAMK1D (human) (UniProt Q8IU85)
[7] = molecular target: ERBB4 (human) (UniProt Q15303)
[8] = molecular target: DYRK2 (human) (UniProt Q92630)
[9] = molecular target: NEK9 (human) (UniProt Q8TD19)
[10] = molecular target: SRPK3 (human) (UniProt Q9UPE1)
[11] = molecular target: ULK2 (human) (UniProt Q8IYT8)
[12] = molecular target: STK3 (human) (UniProt Q13188)
[13] = molecular target: PTK6 (human) (UniProt Q13882)
[14] = molecular target: ITK (human) (UniProt Q08881)
[15] = molecular target: RAF1 (human) (UniProt P04049)
[16] = molecular target: CDK2 CCNE1 (human) (UniProt P24941+P24864)
[17] = molecular target: MAPK14 (human) (UniProt Q16539)
[18] = molecular target: CSF1R (human) (UniProt P07333)
[19] = molecular target: PIM3 (human) (UniProt Q86V86)
[20] = molecular target: AXL (human) (UniProt P30530)
[21] = molecular target: PAK7 (human) (UniProt Q9P286)
[22] = molecular target: CAMK2G (human) (UniProt Q13555)
[23] = molecular target: MYLK (human) (UniProt Q15746)
[24] = molecular target: DSTYK (human) (UniProt Q6XUX3)
[25] = molecular target: CDK7 CCNH MNAT1 (human) (UniProt P50613+P51948+P51946)
[26] = molecular target: MST4 (human) (UniProt Q9P289)
[27] = molecular target: NEK4 (human) (UniProt P51957)
[28] = molecular target: STK10 (human) (UniProt O94804)
[29] = molecular target: TEK (human) (UniProt Q02763)
[30] = molecular target: FGFR4 (human) (UniProt P22455)
[31] = molecular target: DYRK1A (human) (UniProt Q13627)
[32] = molecular target: FES (human) (UniProt P07332)
[33] = molecular target: SYK (human) (UniProt P43405)
[34] = molecular target: CHUK (human) (UniProt O15111)
[35] = molecular target: TAOK3 (human) (UniProt Q9H2K8)
[36] = molecular target: DAPK2 (human) (UniProt Q9UIK4)
[37] = molecular target: JAK2 JH1 JH2 (human) (UniProt O60674)
[38] = molecular target: ACVRL1 (human) (UniProt P37023)
[39] = molecular target: AKT2 (human) (UniProt P31751)
[40] = molecular target: STK4 (human) (UniProt Q13043)
[41] = molecular target: ADRBK1 (human) (UniProt P25098)
[42] = molecular target: MINK1 (human) (UniProt Q8N4C8)

LTK (human), sequence (P29376 whole entry, looked up): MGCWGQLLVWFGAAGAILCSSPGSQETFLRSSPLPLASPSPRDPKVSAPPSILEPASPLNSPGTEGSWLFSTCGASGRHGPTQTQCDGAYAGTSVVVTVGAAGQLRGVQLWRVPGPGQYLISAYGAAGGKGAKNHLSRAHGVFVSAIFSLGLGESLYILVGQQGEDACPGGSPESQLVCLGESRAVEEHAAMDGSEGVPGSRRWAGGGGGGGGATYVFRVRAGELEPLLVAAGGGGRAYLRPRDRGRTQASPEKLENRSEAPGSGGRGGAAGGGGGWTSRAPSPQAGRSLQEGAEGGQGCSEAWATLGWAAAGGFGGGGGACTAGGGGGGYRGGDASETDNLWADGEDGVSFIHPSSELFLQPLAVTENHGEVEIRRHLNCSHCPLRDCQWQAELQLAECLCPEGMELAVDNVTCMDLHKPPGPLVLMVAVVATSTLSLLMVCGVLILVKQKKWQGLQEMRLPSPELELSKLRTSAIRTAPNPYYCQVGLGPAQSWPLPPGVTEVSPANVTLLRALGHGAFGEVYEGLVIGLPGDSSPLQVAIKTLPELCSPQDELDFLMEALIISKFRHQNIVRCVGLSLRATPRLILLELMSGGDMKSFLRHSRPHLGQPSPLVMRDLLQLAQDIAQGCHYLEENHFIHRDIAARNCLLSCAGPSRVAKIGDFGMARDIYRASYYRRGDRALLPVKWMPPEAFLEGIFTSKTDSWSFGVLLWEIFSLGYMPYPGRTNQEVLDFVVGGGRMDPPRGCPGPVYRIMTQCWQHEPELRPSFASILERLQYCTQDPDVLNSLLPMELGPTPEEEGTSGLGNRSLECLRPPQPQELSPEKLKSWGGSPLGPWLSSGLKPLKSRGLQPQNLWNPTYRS
STK3 (human), sequence (Q13188 whole entry, looked up): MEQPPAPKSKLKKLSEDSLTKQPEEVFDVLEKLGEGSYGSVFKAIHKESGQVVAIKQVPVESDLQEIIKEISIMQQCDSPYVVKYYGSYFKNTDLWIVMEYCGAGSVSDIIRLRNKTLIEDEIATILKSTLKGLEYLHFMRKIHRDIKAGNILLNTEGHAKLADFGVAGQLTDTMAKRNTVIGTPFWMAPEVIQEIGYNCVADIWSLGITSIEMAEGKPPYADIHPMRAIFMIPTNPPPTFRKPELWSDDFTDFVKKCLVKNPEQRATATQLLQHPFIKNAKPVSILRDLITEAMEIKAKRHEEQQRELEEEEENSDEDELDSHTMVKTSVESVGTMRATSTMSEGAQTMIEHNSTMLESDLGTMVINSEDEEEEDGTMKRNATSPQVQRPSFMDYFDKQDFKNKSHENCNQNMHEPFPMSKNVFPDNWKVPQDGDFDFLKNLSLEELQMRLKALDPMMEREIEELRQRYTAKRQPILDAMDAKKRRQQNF
MYLK (human), sequence (Q15746 whole entry, looked up): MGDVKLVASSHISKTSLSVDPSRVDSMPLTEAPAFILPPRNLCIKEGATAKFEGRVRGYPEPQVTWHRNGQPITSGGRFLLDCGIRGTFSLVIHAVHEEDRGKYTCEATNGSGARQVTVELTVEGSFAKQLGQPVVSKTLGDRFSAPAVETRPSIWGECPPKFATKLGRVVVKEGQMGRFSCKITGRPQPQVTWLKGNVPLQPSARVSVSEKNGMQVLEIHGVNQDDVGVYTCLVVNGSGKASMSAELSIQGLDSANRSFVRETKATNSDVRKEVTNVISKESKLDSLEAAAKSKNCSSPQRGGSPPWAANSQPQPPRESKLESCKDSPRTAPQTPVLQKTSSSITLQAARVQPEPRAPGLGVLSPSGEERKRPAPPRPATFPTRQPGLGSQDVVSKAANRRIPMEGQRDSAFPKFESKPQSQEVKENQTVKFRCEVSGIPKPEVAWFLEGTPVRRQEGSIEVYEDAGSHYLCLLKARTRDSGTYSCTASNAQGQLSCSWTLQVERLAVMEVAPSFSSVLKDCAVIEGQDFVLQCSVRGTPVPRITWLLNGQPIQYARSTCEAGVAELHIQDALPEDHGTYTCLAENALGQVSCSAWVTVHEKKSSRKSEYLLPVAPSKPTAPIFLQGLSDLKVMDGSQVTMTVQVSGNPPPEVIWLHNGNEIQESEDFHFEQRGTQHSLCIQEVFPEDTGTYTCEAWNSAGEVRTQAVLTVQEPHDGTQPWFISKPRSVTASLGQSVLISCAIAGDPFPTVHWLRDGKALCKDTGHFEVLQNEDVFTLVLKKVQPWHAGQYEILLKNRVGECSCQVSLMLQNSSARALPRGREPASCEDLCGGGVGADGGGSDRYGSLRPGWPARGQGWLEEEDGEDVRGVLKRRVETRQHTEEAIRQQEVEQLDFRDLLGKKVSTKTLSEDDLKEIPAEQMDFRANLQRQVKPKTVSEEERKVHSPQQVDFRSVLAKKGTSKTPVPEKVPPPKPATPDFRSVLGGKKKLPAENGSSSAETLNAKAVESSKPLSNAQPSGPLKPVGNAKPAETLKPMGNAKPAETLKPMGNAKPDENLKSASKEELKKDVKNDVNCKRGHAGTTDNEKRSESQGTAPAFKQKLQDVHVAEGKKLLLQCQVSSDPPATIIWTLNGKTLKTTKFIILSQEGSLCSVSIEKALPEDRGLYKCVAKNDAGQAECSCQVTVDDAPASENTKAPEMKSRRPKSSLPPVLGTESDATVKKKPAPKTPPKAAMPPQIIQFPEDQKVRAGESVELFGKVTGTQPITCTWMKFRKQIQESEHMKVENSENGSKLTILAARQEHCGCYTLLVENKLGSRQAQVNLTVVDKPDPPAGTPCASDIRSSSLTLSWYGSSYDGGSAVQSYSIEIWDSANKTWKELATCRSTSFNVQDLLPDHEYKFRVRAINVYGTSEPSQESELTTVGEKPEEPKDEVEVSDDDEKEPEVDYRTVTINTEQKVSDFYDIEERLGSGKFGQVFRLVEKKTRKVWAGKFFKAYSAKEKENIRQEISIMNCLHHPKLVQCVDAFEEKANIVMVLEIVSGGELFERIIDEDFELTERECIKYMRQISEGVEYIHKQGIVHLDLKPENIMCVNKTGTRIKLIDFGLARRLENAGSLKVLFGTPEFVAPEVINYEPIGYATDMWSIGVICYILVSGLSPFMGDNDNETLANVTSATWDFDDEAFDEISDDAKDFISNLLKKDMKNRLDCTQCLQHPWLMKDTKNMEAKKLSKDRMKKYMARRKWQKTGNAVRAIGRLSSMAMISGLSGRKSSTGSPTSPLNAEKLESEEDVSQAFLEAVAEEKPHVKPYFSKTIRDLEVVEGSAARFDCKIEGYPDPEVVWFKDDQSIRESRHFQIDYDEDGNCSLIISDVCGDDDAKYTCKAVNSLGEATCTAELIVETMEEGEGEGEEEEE
ITK (human), sequence (Q08881 whole entry, looked up): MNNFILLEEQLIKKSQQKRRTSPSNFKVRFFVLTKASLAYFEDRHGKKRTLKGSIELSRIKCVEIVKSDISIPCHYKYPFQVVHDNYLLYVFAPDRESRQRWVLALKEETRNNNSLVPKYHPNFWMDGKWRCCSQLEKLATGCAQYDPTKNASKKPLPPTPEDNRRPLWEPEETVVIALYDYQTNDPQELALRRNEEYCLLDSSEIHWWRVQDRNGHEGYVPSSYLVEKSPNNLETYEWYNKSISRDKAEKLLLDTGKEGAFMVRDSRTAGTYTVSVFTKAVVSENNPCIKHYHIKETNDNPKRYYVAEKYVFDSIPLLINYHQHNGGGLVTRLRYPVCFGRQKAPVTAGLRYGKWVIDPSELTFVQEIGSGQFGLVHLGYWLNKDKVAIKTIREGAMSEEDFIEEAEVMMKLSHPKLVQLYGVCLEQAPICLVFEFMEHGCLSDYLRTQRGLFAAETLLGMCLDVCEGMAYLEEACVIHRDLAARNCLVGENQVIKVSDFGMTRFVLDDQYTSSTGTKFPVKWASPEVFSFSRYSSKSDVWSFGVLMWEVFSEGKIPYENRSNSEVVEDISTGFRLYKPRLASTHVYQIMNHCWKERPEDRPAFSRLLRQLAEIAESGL
DAPK2 (human), sequence (Q9UIK4 whole entry, looked up): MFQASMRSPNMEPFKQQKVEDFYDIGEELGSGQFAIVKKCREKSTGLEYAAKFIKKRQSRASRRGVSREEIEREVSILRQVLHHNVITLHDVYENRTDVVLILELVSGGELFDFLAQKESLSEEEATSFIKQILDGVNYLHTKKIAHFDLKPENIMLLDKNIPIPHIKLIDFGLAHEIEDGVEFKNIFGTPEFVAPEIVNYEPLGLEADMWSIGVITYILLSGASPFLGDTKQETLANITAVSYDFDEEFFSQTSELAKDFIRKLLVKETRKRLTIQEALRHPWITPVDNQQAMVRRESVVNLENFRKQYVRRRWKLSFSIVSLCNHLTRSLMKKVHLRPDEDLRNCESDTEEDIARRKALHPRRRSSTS
AKT2 (human), sequence (P31751 whole entry, looked up): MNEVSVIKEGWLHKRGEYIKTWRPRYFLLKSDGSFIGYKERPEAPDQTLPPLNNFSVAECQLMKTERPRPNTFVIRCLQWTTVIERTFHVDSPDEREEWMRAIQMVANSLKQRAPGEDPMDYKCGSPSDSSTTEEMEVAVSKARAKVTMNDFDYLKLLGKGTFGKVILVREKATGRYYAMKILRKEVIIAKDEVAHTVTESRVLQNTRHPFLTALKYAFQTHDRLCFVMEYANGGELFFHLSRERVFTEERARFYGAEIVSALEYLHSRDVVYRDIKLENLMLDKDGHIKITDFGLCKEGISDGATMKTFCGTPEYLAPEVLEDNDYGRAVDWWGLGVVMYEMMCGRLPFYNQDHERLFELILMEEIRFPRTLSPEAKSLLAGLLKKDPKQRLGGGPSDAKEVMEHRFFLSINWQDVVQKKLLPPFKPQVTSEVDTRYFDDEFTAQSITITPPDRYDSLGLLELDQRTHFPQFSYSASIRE

Cc1cc2ncc(-c3ccccc3)nc2cc1C
residual activity [1]: 101% | residual activity [2]: 95.5% | residual activity [3]: 96.8% | residual activity [4]: 90.3% | residual activity [5]: 94.8% | residual activity [6]: 100% | residual activity [7]: 96.4% | residual activity [8]: 95.9% | residual activity [9]: 93.1% | residual activity [10]: 91.4% | residual activity [11]: 108% | residual activity [12]: 98.9% | residual activity [13]: 93.6% | residual activity [14]: 100% | residual activity [15]: 95.6% | residual activity [16]: 91.8% | residual activity [17]: 103% | residual activity [18]: 82.1% | residual activity [19]: 103% | residual activity [20]: 100% | residual activity [21]: 96.9% | residual activity [22]: 105% | residual activity [23]: 102% | residual activity [24]: 95.5% | residual activity [25]: 98.5% | residual activity [26]: 97.6% | residual activity [27]: 99.3% | residual activity [28]: 90.7% | residual activity [29]: 99.7% | residual activity [30]: 77.2% | residual activity [31]: 89.9% | residual activity [32]: 97.3% | residual activity [33]: 97.4% | residual activity [34]: 86.9% | residual activity [35]: 96.2% | residual activity [36]: 92.6% | residual activity [37]: 97.3% | residual activity [38]: 97.9% | residual activity [39]: 99.7% | residual activity [40]: 98.6% | residual activity [41]: 92.5% | residual activity [42]: 91.8%

COc1cc2nccc(Oc3ccc(NC(=S)NC(=O)c4ccccc4C)cc3)c2cc1OC
residual activity [1]: 108% | residual activity [2]: 98.2% | residual activity [3]: 89.3% | residual activity [4]: 86.1% | residual activity [5]: 28.4% | residual activity [6]: 72.5% | residual activity [7]: 114% | residual activity [8]: 87.5% | residual activity [9]: 103% | residual activity [10]: 95.9% | residual activity [11]: 88.8% | residual activity [12]: 86% | residual activity [13]: 33.9% | residual activity [14]: 80.6% | residual activity [15]: 97% | residual activity [16]: 96.7% | residual activity [17]: 80.2% | residual activity [18]: 10.5% | residual activity [19]: 98.2% | residual activity [20]: 80.4% | residual activity [21]: 102% | residual activity [22]: 103% | residual activity [23]: 104% | residual activity [24]: 112% | residual activity [25]: 97.7% | residual activity [26]: 101% | residual activity [27]: 97.6% | residual activity [28]: 11.9% | residual activity [29]: 90.1% | residual activity [30]: 92.9% | residual activity [31]: 95.4% | residual activity [32]: 96.7% | residual activity [33]: 95.5% | residual activity [34]: 98.3% | residual activity [35]: 87.9% | residual activity [36]: 78.7% | residual activity [37]: 97.7% | residual activity [38]: 91.7% | residual activity [39]: 102% | residual activity [40]: 95.6% | residual activity [41]: 95.6% | residual activity [42]: 90.1%

Oc1ccc(-c2nc(-c3ccc(F)cc3)c(-c3ccncc3)[nH]2)cc1
residual activity [1]: 101% | residual activity [2]: 98% | residual activity [3]: 32.8% | residual activity [4]: 97.1% | residual activity [5]: 101% | residual activity [6]: 102% | residual activity [7]: 83.1% | residual activity [8]: 99.3% | residual activity [9]: 99.4% | residual activity [10]: 95.9% | residual activity [11]: 97.3% | residual activity [12]: 105% | residual activity [13]: 50.3% | residual activity [14]: 90.9% | residual activity [15]: 25.8% | residual activity [16]: 90.6% | residual activity [17]: 7.42% | residual activity [18]: 96.9% | residual activity [19]: 98.7% | residual activity [20]: 99.8% | residual activity [21]: 107% | residual activity [22]: 101% | residual activity [23]: 106% | residual activity [24]: 100% | residual activity [25]: 99.4% | residual activity [26]: 101% | residual activity [27]: 94% | residual activity [28]: 85% | residual activity [29]: 99.6% | residual activity [30]: 92.9% | residual activity [31]: 99.6% | residual activity [32]: 101% | residual activity [33]: 101% | residual activity [34]: 107% | residual activity [35]: 103% | residual activity [36]: 96.8% | residual activity [37]: 96.2% | residual activity [38]: 95.4% | residual activity [39]: 99% | residual activity [40]: 105% | residual activity [41]: 101% | residual activity [42]: 102%

CC(C)(C)c1nc2c3ccc(F)cc3c3c(=O)[nH]ccc3c2[nH]1
residual activity [1]: 92.3% | residual activity [2]: 75.2% | residual activity [3]: 83.4% | residual activity [4]: 20.6% | residual activity [5]: 80.5% | residual activity [6]: 81.6% | residual activity [7]: 99.9% | residual activity [8]: 62.5% | residual activity [9]: 71.7% | residual activity [10]: 58.6% | residual activity [11]: 41.5% | residual activity [12]: 5.45% | residual activity [13]: 88% | residual activity [14]: 86% | residual activity [15]: 134% | residual activity [16]: 87.5% | residual activity [17]: 93.5% | residual activity [18]: 93% | residual activity [19]: 33.9% | residual activity [20]: 81.9% | residual activity [21]: 90.5% | residual activity [22]: 72.8% | residual activity [23]: 9.03% | residual activity [24]: 62% | residual activity [25]: 92.8% | residual activity [26]: 70.9% | residual activity [27]: 65.6% | residual activity [28]: 72.6% | residual activity [29]: 101% | residual activity [30]: 96.5% | residual activity [31]: 102% | residual activity [32]: 78% | residual activity [33]: 79% | residual activity [34]: 102% | residual activity [35]: 50.3% | residual activity [36]: 18% | residual activity [37]: 1.37% | residual activity [38]: 105% | residual activity [39]: 89.8% | residual activity [40]: 6.84% | residual activity [41]: 98.5% | residual activity [42]: 52%
